Like-named read-outs stand apart in the source and are kept apart here.
Columns and labels:
[1] = system: VCaP cells; assay: Cellular growth inhibition assay for VCaP cells, CellTiter-Glo; assay type: cell-based, human; details: VCaP cells, 72 hours, CellTiter-Glo, read-out: GI50
Summary of the method: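 GI50 values come from four-parameter curve fits of luminescence data normalized to a zero baseline. Compound, in medium with 0.5% DMSO, was added one day after plating and left for 72 h before CellTiter-Glo 2.0 addition.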

[2] = system: T-Rex 293 cell line SC3 cells lacking increased expression of androgen receptor protein; assay: Cellular growth inhibition, T-Rex 293 SC3 cells lacking increased androgen receptor expression (no doxycycline), CellTiter-Glo; assay type: cell-based; details: T-Rex 293 SC3 cells lacking increased androgen receptor expression (not exposed to doxycycline), 72 hours, CellTiter-Glo; read-out: GI50
Summary of the method: (§1)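 SC3, a T-Rex 293 clone with doxycycline-inducible wild-type androgen receptor, was seeded in phenol red-free DMEM with 10% charcoal-dextran FBS, with or without 10 ng/mL doxycycline. Compound added at 24 h (0.5% DMSO) for 72 h at 37° C. CellTiter-Glo 2.0 luminescence; GI50 from four-parameter fit.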

[3] = system: T-Rex 293 cell line SC3 cells having increased expression of androgen receptor protein; assay: Cellular growth inhibition, T-Rex 293 SC3 cells with increased androgen receptor expression (doxycycline), CellTiter-Glo; assay type: cell-based; details: T-Rex 293 SC3 cells with increased androgen receptor expression (exposed to 10 ng/mL doxycycline), 72 hours, CellTiter-Glo; read-out: GI50
Summary of the method: as §1

[4] = molecular target: BRD4-BD1 (Homo sapiens (Human), UniProt O60885); assay: bromoKdELECT assay for binding affinity to BRD4-BD1; details: 11-point 3-fold dilution

SMILES | GI50 [1] | Kd [4] | GI50 ([1]; Homo sapiens) | GI50 [2] | GI50 [3]
Cn1cc(-c2cc(C(C)(C)O)ccc2Oc2ccc(CCC3CCN(c4ccc(C(=O)N[C@H]5CC[C@H](Oc6ccc(C#N)c(Cl)c6)CC5)nn4)CC3)cc2)c2cc[nH]c2c1=O [I-102] | < 0.5 µM | > 2.5 µM | – | 0.5 to 1.5 µM | < 0.5 µM
Cn1cc(-c2cc(C(C)(C)O)ccc2O[C@H]2C[C@H](N(C)CC3CCN(c4ccc(C(=O)N[C@H]5CC[C@H](Oc6ccc(C#N)c(Cl)c6)CC5)nn4)CC3)C2)c2cc[nH]c2c1=O [I-158, N-((1r,4r)-4-(3-chloro-4-cyanophenoxy)cyclohexyl)-6-(4-((((1r,3r)-3-(4-(2-hydroxypropan-2-yl)-2-(6-methyl-7-oxo-6,7-dihydro-1H-pyrrolo[2,3-c]pyridin-4-yl)phenoxy)cyclobutyl)(methyl)amino)methyl)piperidin-1-yl)pyridazine-3-carboxamide] | – | 0.05 to 0.5 µM | < 0.5 µM | < 0.5 µM | < 0.5 µM
CCS(=O)(=O)Nc1ccc(Oc2cccc(OCCOC3CCN(c4ccc(C(=O)N[C@H]5CC[C@H](Oc6ccc(C#N)c(Cl)c6)CC5)nn4)CC3)c2)c(-c2cn(C)c(=O)c3[nH]ccc23)c1 [I-1, N-[4-(3-chloro-4-cyano-phenoxy)cyclohexyl]-6-[4-[2-[3-[4-(ethylsulfonylamino)-2-(6-methyl-7-oxo-1H-pyrrolo[2,3-c]pyridin-4-yl)phenoxy]phenoxy]ethoxy]-1-piperidyl]pyridazine-3-carboxamide] | – | – | < 0.5 µM | < 0.5 µM | < 0.5 µM
Cn1cc(-c2cc(C(C)(C)O)ccc2Oc2ccc(OC3CN(c4ccc(C(=O)N[C@H]5CC[C@H](Oc6ccc(C#N)c(Cl)c6)CC5)nn4)C3)cc2)c2cc[nH]c2c1=O [I-95, N-[4-(3-chloro-4-cyano-phenoxy)cyclohexyl]-6-[3-[4-[4-(1-hydroxy-1-methyl-ethyl)-2-(6-methyl-7-oxo-1H-pyrrolo[2,3-c]pyridin-4-yl)phenoxy]phenoxy]azetidin-1-yl]pyridazine-3-carboxamide] | – | 0.5 to 2.5 µM | < 0.5 µM | < 0.5 µM | < 0.5 µM

Second part, led by results:

GI50 [1] | Kd [4] | GI50 ([1]; Homo sapiens) | SMILES | GI50 [2] | GI50 [3]
< 0.5 µM | 0.5 to 2.5 µM | – | CCS(=O)(=O)c1ccc(Oc2cc(F)c(CCC3CCN(c4ccc(C(=O)N[C@H]5CC[C@H](Oc6ccc(C#N)c(Cl)c6)CC5)nn4)CC3)cc2F)c(-c2cn(C)c(=O)c3[nH]ccc23)c1 [I-59] | < 0.5 µM | < 0.5 µM
– | 0.5 to 2.5 µM | < 0.5 µM | Cn1cc(-c2cc(C(C)(C)O)ccc2Oc2c(F)cc(CCOC3CCN(c4ccc(C(=O)N[C@H]5CC[C@H](Oc6ccc(C#N)c(Cl)c6)CC5)nn4)CC3)cc2F)c2cc[nH]c2c1=O [I-109] | < 0.5 µM | < 0.5 µM
< 0.5 µM | 0.05 to 0.5 µM | – | CCS(=O)(=O)c1ccc(Oc2cccc(CCCC3CCN(c4ccc(C(=O)N[C@H]5CC[C@H](Oc6ccc(C#N)c(Cl)c6)CC5)nn4)CC3)c2F)c(-c2cn(C)c(=O)c3[nH]ccc23)c1 [I-52] | < 0.5 µM | < 0.5 µM
– | 0.05 to 0.5 µM | < 0.5 µM | CCS(=O)(=O)c1ccc(Oc2cccc(CCC3CCN(c4ccc(C(=O)N[C@H]5CC[C@H](Oc6ccc(C#N)c(Cl)c6)CC5)nn4)CC3)c2F)c(-c2cn(C)c(=O)c3[nH]ccc23)c1 [I-51] | < 0.5 µM | < 0.5 µM
– | 0.5 to 2.5 µM | < 0.5 µM | CCS(=O)(=O)c1ccc(Oc2cccc(CCCOC3CC4(C3)CN(c3ccc(C(=O)N[C@H]5CC[C@H](Oc6ccc(C#N)c(Cl)c6)CC5)nn3)C4)c2F)c(-c2cn(C)c(=O)c3[nH]ccc23)c1 [I-46] | < 0.5 µM | < 0.5 µM
